From ChEMBL document CHEMBL3045912, “Prediction of fungicidal activities of rice blast disease based on least-squares support vector machines and project pursuit regression” (2008) come the findings set out here.

This test concerns Pyricularia grisea. The test can be described thus: Fungicidal activity against Magnaporthe grisea in rice seedlings assessed as area of infection on leaves treated 24 hr prior to spore inoculation measured 5 days after the fungal challenge. The format is functional.
As for `CCCCCCc1ccc(/N=c2/scc(CC(=O)Nc3ccc(CC)cc3)n2C)cc1`, the “log(%)” value was 2.
Regarding `Cn1c(CC(=O)Nc2ccc(Br)cc2)cs/c1=N\c1cccc(F)c1`, the “log(%)” value was found to be 1.9.
Consider `Cn1c(CC(=O)Nc2ccc(OC(F)(F)F)cc2)cs/c1=N\c1cccc(C(F)(F)F)c1`, for which the “log(%)” value amounted to 1.7.
As to `Cn1c(CC(=O)Nc2ccc(Oc3ccccc3)cc2)cs/c1=N\c1cccc(Br)c1`, the “log(%)” value is 0.9.
The figure for `Cn1c(CC(=O)Nc2ccc([N+](=O)[O-])cc2)cs/c1=N/c1ccc(F)cc1` is 0.9; for `COc1ccc(/N=c2/scc(CC(=O)Nc3ccc(OC(F)(F)F)cc3)n2C)cc1` it is 1.4; for `Cn1c(CC(=O)Nc2ccc(Cl)cc2)cs/c1=N/c1ccc(-c2ccccc2)cc1` it is 1.98.
Consider `COc1ccc(NC(=O)Cc2cs/c(=N\c3cccc(C(F)(F)F)c3)n2C)cc1`, for which the “log(%)” value was found to be 2.
The figure for `Cn1c(CC(=O)Nc2ccc([N+](=O)[O-])cc2)cs/c1=N/c1ccc(C#N)cc1` is 0.7.
For `CCCCOc1ccc(NC(=O)Cc2cs/c(=N/c3ccc(C(F)(F)F)cc3)n2C)cc1`, the “log(%)” value worked out at 1.
The figure for `Cn1c(CC(=O)Nc2ccc(C(F)F)cc2)cs/c1=N\c1ccc(Br)cc1` is 1.4; for `CCCCc1ccc(NC(=O)Cc2cs/c(=N\c3ccc(F)c(Cl)c3)n2C)cc1` it is 1.3.
The figure for `CCc1ccc(NC(=O)Cc2cs/c(=N/c3ccc(CC#N)cc3)n2C)cc1` is 2.
Turning to `COc1ccc(NC(=O)Cc2cs/c(=N\c3ccc(Cl)c(C(F)(F)F)c3)n2C)cc1`, the “log(%)” value came to 2.
Consider `CC(C)Oc1ccc(/N=c2/scc(CC(=O)Nc3ccc(C(F)F)cc3)n2C)cc1`, for which the “log(%)” value is recorded as 1.7.
The figure for `CCCCOc1ccc(NC(=O)Cc2cs/c(=N\c3cccc(F)c3)n2C)cc1` is 1.
The figure for `CCc1ccc(NC(=O)Cc2cs/c(=N/c3ccc(C(C)=O)cc3)n2C)cc1` is 2.
Consider `COc1ccc(NC(=O)Cc2cs/c(=N\c3ccccc3C(C)C)n2C)cc1`, for which the “log(%)” value was 1.9.
For `CC(C)c1ccc(NC(=O)Cc2cs/c(=N/c3ccc(C(F)(F)F)cc3)n2C)cc1` the value was 1.8; for `Cn1c(CC(=O)Nc2ccc(Oc3ccccc3)cc2)cs/c1=N/c1ccc(Oc2ccccc2)cc1`, 1.4.
On to `CCc1ccc(NC(=O)Cc2cs/c(=N\c3ccc(OC)cc3C)n2C)cc1`, for which the “log(%)” value came out at 2.
The figure for `CCc1ccc(NC(=O)Cc2cs/c(=N/c3ccc(Cl)cc3)n2C)cc1` is 2.
The figure for `CCc1ccc(NC(=O)Cc2cs/c(=N\c3ccc(Br)cc3F)n2C)cc1` is 2; for `COc1ccc(NC(=O)Cc2cs/c(=N/c3ccc([N+](=O)[O-])cc3)n2C)cc1` it is 2.
The figure for `CCc1ccc(NC(=O)Cc2cs/c(=N/c3ccc([N+](=O)[O-])cc3OC)n2C)cc1` is 1.81.
Consider `Cn1c(CC(=O)Nc2ccc(OC(F)(F)F)cc2)cs/c1=N\c1ccc(F)cc1`, for which the “log(%)” value came to 0.9.
For `CCCCc1ccc(NC(=O)Cc2cs/c(=N\c3cccc(F)c3)n2C)cc1` the value was 1; for `Cn1c(CC(=O)Nc2ccc(OC(F)(F)F)cc2)cs/c1=N\c1cccc(Br)c1`, 1.7.
For `COc1ccc(/N=c2\scc(CC(=O)Nc3ccc(C(F)F)cc3)n2C)cc1` the value was 1.4; for `COc1ccccc1/N=c1\scc(CC(=O)Nc2ccc(OC(F)(F)F)cc2)n1C`, 0.7.
On to `CCc1ccc(NC(=O)Cc2cs/c(=N\c3ccc(C)cc3Cl)n2C)cc1`, for which the “log(%)” value stood at 2.
The figure for `CCOc1ccc(NC(=O)Cc2cs/c(=N\c3ccc(F)cc3F)n2C)cc1` is 1.9.
